{
  "source": "paper PMC11025887",
  "about": "“The SARM1 TIR domain produces glycocyclic ADPR molecules as minor products” (PLOS ONE, 2024)",
  "biological_target": "T1, Drosophila SARM1 TIR domain (Drosophila melanogaster, UniProt Q6IDD9)",
  "T1 construct": "gene Sarm; TIR domain only; N-terminal 6xHis tag kept; codon optimized; E. coli BL21(DE3)",
  "T1 sequence (Q6IDD9 837-981 limits assumed)": "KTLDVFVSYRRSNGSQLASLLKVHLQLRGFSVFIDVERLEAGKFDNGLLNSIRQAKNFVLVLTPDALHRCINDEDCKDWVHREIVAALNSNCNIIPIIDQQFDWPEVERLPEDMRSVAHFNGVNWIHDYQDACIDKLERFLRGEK",
  "experiment": "LC-MS/MS of NAD+ and products",
  "assay_type": "biochemical",
  "details": "[…] protein; […] NAD+; […] HEPES-KOH pH […]; […] NaCl; […] TCEP; […] C; […] h; main product cADPR",
  "data": [
    {"smiles": "NC(=O)c1ccc[n+]([C@@H]2O[C@H](COP(=O)(O)OP(=O)(O)OC[C@H]3O[C@@H](n4cnc5c(N)ncnc54)[C@H](O)[C@@H]3O)[C@@H](O)[C@H]2O)c1", "note": "[NAD^+]", "values": [
      {"measurement": "LC-MS/MS of NAD+ and products", "value": "SARM1 TIR domains consumed NAD^+ efficiently"}
    ]}
  ]
}
